Experiments:
Aphanomyces euteiches = assay: Potted plant trial, field pea, 2× rate of Aphanomyces infection (Example 2); conditions: ipconazole 2.5, carboxin 66.7, metalaxyl 6.7 g ai/100 kg, combination 500 ml/100 kg; for Root rot damage: 29 DAP
Method: The control consisted of seed inoculated with Aphanomyces and used water as the seed treatment. The experiment was performed in a controlled environment growth cabinet.
Culture: A 3-day old culture of Aphanomyces euteiches (3 days is when growth has fully encompassed plate) was used for 5 mm inoculation plug source (each plate received one 5 mm plug and four seeds)×4 reps.
Experimental design: 4 reps of each treatment (including controls), with each replication represented by 5 planted seeds for a total of 20 seeds per treatment were performed. All treatments received inoculum. Each seed is placed in a solitary location of a plant tray/flat that has 50 plugs per flat. One flat contained 2 treatments, separated by 10 plugs (2 rows of 5). Treatments 1 and 6 (controls) shared the same flat. The plug flats were placed in a collection tray that was not perforated and all watering was done with tap water from bottom up.
Culture media: 3 day old cultures of A. euteiches were grown on CYP (corn meal agar+yeast extract+phosphate buffer), amended with wheat leaf sections were transferred to 100 ml sterile distilled water in 250 ml flasks and shaken at 100 rpm in the dark at 23° C. for 18 hours for zoospore production.
Inducing Aphanomyces infection: Zoospores were counted and adjusted to a concentration of 1×10^4 spores, and 5 mls of this suspension was pipetted to the base of each plant on 4 DAP and again on 11 DAP (days after planting). This amounted to 50000 zoospores applied to the base of each plant at each inoculation timing. This was called 2× rate. The experiment was conducted in a growth cabinet at 23° C./22° C., 16 hrs light/8 hours dak.-root washing/rating of root darkening took place at 29 DAP which was 18 days after the second inoculation event or 25 days after the first inoculation event.

[1] = system: Mycosphaerella pinodes and Ascochyta pinodella; assay: Potted plant trial, pea, stem damage from seed borne root rot / ascochyta blight; conditions: ipconazole 2.5, carboxin 66.7, metalaxyl 6.7 g ai/100 kg, combination 500 ml/100 kg

With `CC1=C(C(=O)Nc2ccccc2)SCCO1` [Carboxin] the Root rot damage (Aphanomyces euteiches) was 0.6 bc 0-5 index/scale, the “Plant height (cm)” value (Aphanomyces euteiches) was 12.9 cm and the “Seed emergence (%)” value (Aphanomyces euteiches) was 80.0%. It also gave a Stem damage [1] of 1.8 a 0-3 index/scale.
In the case of `CC(C)C1CCC(Cc2ccc(Cl)cc2)C1(O)Cn1cncn1` (stereo not shown) [Ipconazole], the Root rot damage (Aphanomyces euteiches) is reported as 2.2 a 0-5 index/scale, the “Plant height (cm)” value (Aphanomyces euteiches) is reported as 12.3 cm and the “Seed emergence (%)” value (Aphanomyces euteiches) is reported as 85.0%.
`COCC(=O)N(c1c(C)cccc1C)C(C)C(=O)OC` (stereo not shown) [Metalaxyl] was tested, and the Root rot damage (Aphanomyces euteiches) was 0.7 bc 0-5 index/scale, the “Plant height (cm)” value (Aphanomyces euteiches) was 12.2 cm and the “Seed emergence (%)” value (Aphanomyces euteiches) was 80.0%.
